Measured values published in US8658668B2, “PI3 kinase/mTOR dual inhibitor” (Eli Lilly and Company, priority 2011, dated 2014).
Values after ≈ are worked out from the molar mass of the structure shown.

Assay: Solubility determination
Format: physicochemical
Method: Prepare a 2 mg/mL solution of Example 2 in each of the required media by weighing approximately 1 mg of compound into a vial and add the required volume (i.e. 0.5 mL) of the corresponding media into each vial. Place capped vial on a rotating mixture over night (˜16 hours) at ambient conditions, then filter using 0.22 um Ultrafree-MC filters (Millipore™) and measure pH of filtrate (Orion 720A pH meter). Prepare the sample for HPLC analysis by transferring 100 μL of the filtrate into a HPLC vial and add 900 μL of 50% acetonitrile/water solution.

CO[C@@H](C)Cn1c(=O)n(C)c2cnc3ccc(-c4cncc(C(C)(C)O)c4)cc3c21 [Example 2, 8-[5-(1-Hydroxy-1-methylethyl)pyridin-3-yl]-1-[(2S)-2-methoxypropyl]-3-methyl-1,3-dihydro-2H-imidazo[4,5-c]quinolin-2-one, Form I]
Solubility, Average mg/mL (50 mM phosphate buffer at pH 2, average filtrate pH 2.31): ≧2.0 mg/mL
Solubility, Average mg/mL (50 mM phosphate buffer at pH 4, average filtrate pH 4.92): 1.0524 mg/mL (≈ 2590 µM)
Solubility, Average mg/mL (50 mM phosphate buffer at pH 6, average filtrate pH 6.14): 0.7178 mg/mL (≈ 1770 µM)
Solubility, Average mg/mL (50 mM phosphate buffer at pH 8, average filtrate pH 8.00): 0.6352 mg/mL (≈ 1560 µM)
Solubility, Average mg/mL (0.1N HCl, average filtrate pH 1.15, ~16 hours, ambient): ≧2.0 mg/mL
Solubility, Average mg/mL (Fast, simulated intestinal fluid fasted state, average filtrate pH 6.45): 1.0203 mg/mL (≈ 2510 µM)
Solubility, Average mg/mL (Fed, simulated intestinal fluid fed state, average filtrate pH 5.09): ≧2.0 mg/mL
Solubility, Average mg/mL (SGF, simulated gastric fluid, average filtrate pH 3.52): 1.7529 mg/mL (≈ 4310 µM)
